Measurements reported in the supplement of paper PMC5908809.

Legend:
Test in all cases: relative IC50 (inflection point of fitted viability curve, relative to fitted max inhibition); higher = less sensitive
Details in all cases: 72 h
[1] = test system: IMC-1 (IL-2 20 ng/mL)
Procedure: (§1)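 Drug sensitivity and resistance testing: 5 concentrations over a 10,000-fold range, 72 h at 37 °C, viability by CellTiter-Glo normalised to DMSO and benzethonium chloride controls. IC50 is the inflection point of a logistic fit (min fixed at 0, max fitted), so it is relative to the fitted maximal inhibition. Kept only where fitted max inhibition is at least 50%.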

[2] = test system: normal primary NK cells, pool 2 (3 donors) (IL-2 2.5 ng/mL)
Procedure: as §1

[3] = test system: NK-YS (IL-2 2.5 ng/mL)
Procedure: as §1

[4] = test system: YT (IL-2 2.5 ng/mL)
Procedure: as §1

[5] = test system: DERL-7 (IL-2 2.5 ng/mL)
Procedure: as §1

[6] = test system: NKL (IL-2 2.5 ng/mL)
Procedure: as §1

[7] = test system: KHYG-1 (IL-2 2.5 ng/mL)
Procedure: as §1

[8] = test system: SNK-6 (IL-2 2.5 ng/mL)
Procedure: as §1

[9] = test system: KAI3 (IL-2 2.5 ng/mL)
Procedure: as §1

[10] = test system: NK-92 (IL-2 2.5 ng/mL)
Procedure: as §1

[11] = test system: normal primary NK cells, pool 1 (3 donors), resting (IL-2 0 ng/mL)
Procedure: as §1

[12] = test system: normal primary NK cells, pool 3 (3 donors) (IL-2 2.5 ng/mL)
Procedure: as §1

Row | Compound | relative IC50 [1] | relative IC50 [2] | relative IC50 [3] | relative IC50 [4] | relative IC50 [5] | relative IC50 [6] | relative IC50 [7] | relative IC50 [8] | relative IC50 [9] | relative IC50 [10] | relative IC50 [11] | relative IC50 [12]
1 | COc1ccccc1S(=O)(=O)Nc1ccc2c(c1)CN(C)C(=O)N2 [PFI-1] | 2970 nM | 1780 nM | 1310 nM | 2310 nM | 1080 nM | 1080 nM | 1640 nM | – | – | – | – | –
2 | Nc1ccn([C@@H]2O[C@H](CO)[C@@H](O)C2(F)F)c(=O)n1 [Gemcitabine] | 3.08 nM | – | 4.67 nM | 15.3 nM | 10.9 nM | 0.73 nM | 2.14 nM | 6.48 nM | 5.17 nM | 2.77 nM | – | –
3 | C[C@@H]1CN(Cc2ccc(F)cc2)[C@@H](C)CN1C(=O)c1cc2c(C(=O)C(=O)N(C)C)cn(C)c2cc1Cl [Talmapimod] | – | – | – | – | – | – | > 10000 nM | > 10000 nM | – | – | – | –
4 | CNCc1ccc(-c2[nH]c3cc(F)cc4c3c2CCNC4=O)cc1 [Rucaparib] | – | – | 2000 nM | – | – | 438 nM | – | – | – | – | – | –
5 | C[C@@H]1COC(Nc2ccc3ncnc(Nc4ccc(OCc5nccs5)c(Cl)c4)c3c2)=N1 [Varlitinib] | – | – | – | – | – | – | – | – | – | – | > 10000 nM | –
6 | C/C(=C\c1csc(C)n1)[C@@H]1C[C@@H]2O[C@]2(C)CCC[C@H](C)[C@H](O)[C@@H](C)C(=O)C(C)(C)[C@@H](O)CC(=O)O1 [Patupilone] | 3.36 nM | – | 11.7 nM | 8.42 nM | 2.74 nM | 12.4 nM | 15.2 nM | 2.61 nM | 6.77 nM | 6.8 nM | – | –
7 | CS(=O)(=O)N1CCc2c(-c3cnc(N)nc3)nc(N3CCOCC3)nc21 | – | – | 940 nM | 1290 nM | 1000 nM | 451 nM | – | – | 384 nM | 316 nM | – | –
8 | CNc1nc(-c2ccc3c(N)n[nH]c3c2)cc(N2C[C@@H](C(=O)NC3CCCCC3)CC[C@H]2C)n1 | > 10000 nM | – | – | – | 248 nM | – | – | > 10000 nM | – | – | – | –
9 | NC(=O)c1cccc2cn(-c3ccc([C@@H]4CCCNC4)cc3)nc12 [Niraparib] | 1800 nM | – | 1490 nM | – | 2170 nM | 219 nM | 2230 nM | 3140 nM | 1580 nM | 1920 nM | – | –
10 | CN1CCN(CCOc2cc(OC3CCOCC3)c3c(Nc4c(Cl)ccc5c4OCO5)ncnc3c2)CC1 [Saracatinib] | 3200 nM | – | 2260 nM | 1200 nM | 1590 nM | – | 3140 nM | – | 2110 nM | 1590 nM | 1620 nM | –
11 | O=C(Nc1c[nH]nc1-c1nc2ccc(CN3CCOCC3)cc2[nH]1)NC1CC1 [AT9283] | 78 nM | – | 41.9 nM | 135 nM | 41.1 nM | 85.5 nM | 47.2 nM | 39.7 nM | 69.8 nM | 65.8 nM | > 1000 nM | –
12 | Cc1cc(Nc2cc(N3CCN(C)CC3)nc(Sc3ccc(NC(=O)C4CC4)cc3)n2)n[nH]1 [Tozasertib] | 283 nM | – | 51 nM | – | 46.3 nM | – | 193 nM | 50.2 nM | 349 nM | 636 nM | – | –
13 | CC(C)(C#N)c1cc(Cn2cncn2)cc(C(C)(C)C#N)c1 [Anastrozole] | > 10000 nM | > 10000 nM | > 10000 nM | – | – | – | > 10000 nM | – | – | – | – | > 10000 nM
